Experimental data reported in paper PMC8907111 (Biochemical and Biophysical Research Communications, 2022).

Molecular target: SARS-CoV-2 M^pro (Severe acute respiratory syndrome coronavirus 2, UniProt P0DTD1)
Assay: FRET protease enzymatic inhibition assay
Format: biochemical
Settings: for inhibition at 50 µM: read-out: M^pro Inhibition rate at 50 μM; for M^pro Inhibition rate at 50 μM: compound at 50 μM, FRET assay

Compound	M^pro Inhibition rate at 50 μM	further results
O=c1cc(-c2ccccc2)oc2cc(O)c(O)c(O)c12 [Compound 8, Baicalein, reference compound]	–	inhibition at 50 µM: 103%
O=c1cc(-c2ccc(O)cc2)oc2cc(O)c(O)c(O)c12 [Compound 1, Scutellarein]	–	inhibition at 50 µM: 102%
COc1ccc(-c2cc(=O)c3c(OC)c(OC)c(OC)cc3o2)cc1 [Compound 7, 5,6,7,4'-tetramethoxyflavone]	reduced rates of inhibition	–
COc1c(O)cc2oc(-c3ccc(O)cc3)cc(=O)c2c1O [Compound 2, Hispidulin]	reduced rates of inhibition	–
COc1ccc(-c2cc(=O)c3c(O)c(OC)c(OC)cc3o2)cc1 [Compound 6, Salvigenin]	reduced rates of inhibition	–
COc1ccc(-c2cc(=O)c3c(O)c(OC)c(O)cc3o2)cc1 [Compound 3, Pectolinarigenin]	reduced rates of inhibition	–
COc1ccc(-c2cc(=O)c3c(OC)c(O)c(O)cc3o2)cc1 [Compound 5, 6,7-dihydroxy-5-methoxy-2-(4-methoxyphenyl) chromone]	–	IC50: 16.7 ± 2.09 µM
